# Measurements: ChEMBL document CHEMBL6182930, “Discovery of TBK1Molecular Glue Degraders as a Potential Strategy for the Treatment of Autosomal Dominant Polycystic Kidney Disease (ADPKD)” (J Med Chem, 2025)
# Activity calls are given as the source filed them. The calls are words filed in the database; no cut-off is given here.
# Columns and labels:
# [1] = Half-life in rat at 2 mg/kg, iv measured after 24 hrs by LC-MS/MS analysis; type: ADME, organism-based; conditions: in vivo
# [2] = Clearance in rat at 2 mg/kg, iv measured after 24 hrs by LC-MS/MS analysis; type: ADME, organism-based; conditions: in vivo
# [3] = Volume of distribution at steady state in rat at 2 mg/kg, iv measured after 24 hrs by LC-MS/MS analysis; type: ADME, organism-based; conditions: in vivo, read-out: Vdss
# [4] = AUC (0 to infinity) in rat at 10 mg/kg, po measured after 24 hrs by LC-MS/MS analysis; type: ADME, organism-based; conditions: in vivo
# [5] = biological target: T1, E3 ubiquitin-protein ligase RNF126/Serine/threonine-protein kinase TBK1 (Homo sapiens, UniProt Q9UHD2+Q9BV68); test: Molecular glue activity at RNF126/TBK1 in human A549 cells assessed as induction of TBK1 degradation at 1 uM incubated for 16 hrs by Western blot analysis; type: cell-based
# Target sequence in this assay (Q9BV68 2-311 partner limits assumed, one chain of several): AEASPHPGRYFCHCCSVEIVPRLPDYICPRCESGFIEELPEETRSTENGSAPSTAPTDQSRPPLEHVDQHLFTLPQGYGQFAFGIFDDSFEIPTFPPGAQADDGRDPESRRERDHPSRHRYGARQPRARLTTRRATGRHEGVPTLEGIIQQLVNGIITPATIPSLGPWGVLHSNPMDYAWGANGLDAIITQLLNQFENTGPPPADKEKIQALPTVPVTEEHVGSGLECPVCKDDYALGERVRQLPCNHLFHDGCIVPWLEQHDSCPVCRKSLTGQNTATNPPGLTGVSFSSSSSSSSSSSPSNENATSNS
# [6] = biological target: T1, E3 ubiquitin-protein ligase RNF126/Serine/threonine-protein kinase TBK1; test: Molecular glue activity at RNF126/TBK1 in HEK293T cells assessed as induction of TBK1 degradation at 1 uM incubated for 16 hrs by Western blot analysis; type: cell-based
# Target sequence in this assay (Q9BV68 2-311 partner limits assumed, one chain of several): as above
# [7] = biological target: T1, E3 ubiquitin-protein ligase RNF126/Serine/threonine-protein kinase TBK1; test: Molecular glue activity at RNF126/TBK1 in human A549 cells assessed as induction of TBK1 degradation incubated for 16 hrs by Western blot analysis; type: cell-based
# [8] = biological target: T1, E3 ubiquitin-protein ligase RNF126/Serine/threonine-protein kinase TBK1; test: Molecular glue activity at RNF126/TBK1 in HEK293T cells assessed as induction of TBK1 degradation incubated for 16 hrs by Western blot analysis; type: cell-based
# [9] = biological target: T1, E3 ubiquitin-protein ligase RNF126/Serine/threonine-protein kinase TBK1; test: Molecular glue activity at RNF126/TBK1 in human A549 cells assessed as induction of TBK1 degradation by measuring maximal efficacy at 10 to 1000 nM incubated for 16 hrs by Western blot analysis relative to control; type: cell-based; conditions: dose 10-1000 nM
# Target sequence in this assay (Q9BV68 2-311 partner limits assumed, one chain of several): as above
# [10] = biological target: T1, E3 ubiquitin-protein ligase RNF126/Serine/threonine-protein kinase TBK1; test: Molecular glue activity at RNF126/TBK1 in HEK293T cells assessed as induction of TBK1 degradation by measuring maximal efficacy at 10 to 1000 nM incubated for 16 hrs by Western blot analysis relative to control; type: cell-based; conditions: dose 10-1000 nM
# Target sequence in this assay (Q9BV68 2-311 partner limits assumed, one chain of several): as above
# [11] = biological target: T1, E3 ubiquitin-protein ligase RNF126/Serine/threonine-protein kinase TBK1; test: Molecular glue activity at RNF126/TBK1 in HEK293T cells assessed as induction of TBK1 degradation at 1 uM measured after 6 hrs by Western blot analysis; type: cell-based
# Target sequence in this assay (Q9BV68 2-311 partner limits assumed, one chain of several): as above
# [12] = biological target: T1, E3 ubiquitin-protein ligase RNF126/Serine/threonine-protein kinase TBK1; test: Molecular glue activity at RNF126/TBK1 in human A549 cells assessed as induction of TBK1 degradation at 1 uM measured after 24 hrs by Western blot analysis; type: cell-based
# Target sequence in this assay (Q9BV68 2-311 partner limits assumed, one chain of several): as above
# [13] = biological target: T1, E3 ubiquitin-protein ligase RNF126/Serine/threonine-protein kinase TBK1; test: Molecular glue activity at RNF126/TBK1 in HEK293T cells assessed as induction of TBK1 degradation at 1 uM measured after 24 hrs by Western blot analysis; type: cell-based
# [14] = biological target: T1, E3 ubiquitin-protein ligase RNF126/Serine/threonine-protein kinase TBK1; test: Molecular glue activity at RNF126/TBK1 in HEK293T cells assessed as induction of TBK1 degradation at 1 uM pretreated with MG132 for 2 hrs followed by compound addition and measured after 16 hrs by Western blot analysis; type: cell-based
# [15] = biological target: T1, E3 ubiquitin-protein ligase RNF126/Serine/threonine-protein kinase TBK1; test: Molecular glue activity at RNF126/TBK1 in HEK293T cells assessed as induction of TBK1 degradation at 1 uM pretreated with MLN4924 for 2 hrs followed by compound addition and measured after 16 hrs by Western blot analysis; type: cell-based
# [16] = biological target: T2, Serine/threonine-protein kinase TBK1 (Homo sapiens, UniProt Q9UHD2); test: Inhibition of TBK1-dependent SEAP reporter gene expression in LPS-stimulated human THP1-Blue ISG cells incubated for 24 hrs by QUANTI-Blue reagent based analysis; type: cell-based
# T2 sequence (Q9UHD2 whole entry): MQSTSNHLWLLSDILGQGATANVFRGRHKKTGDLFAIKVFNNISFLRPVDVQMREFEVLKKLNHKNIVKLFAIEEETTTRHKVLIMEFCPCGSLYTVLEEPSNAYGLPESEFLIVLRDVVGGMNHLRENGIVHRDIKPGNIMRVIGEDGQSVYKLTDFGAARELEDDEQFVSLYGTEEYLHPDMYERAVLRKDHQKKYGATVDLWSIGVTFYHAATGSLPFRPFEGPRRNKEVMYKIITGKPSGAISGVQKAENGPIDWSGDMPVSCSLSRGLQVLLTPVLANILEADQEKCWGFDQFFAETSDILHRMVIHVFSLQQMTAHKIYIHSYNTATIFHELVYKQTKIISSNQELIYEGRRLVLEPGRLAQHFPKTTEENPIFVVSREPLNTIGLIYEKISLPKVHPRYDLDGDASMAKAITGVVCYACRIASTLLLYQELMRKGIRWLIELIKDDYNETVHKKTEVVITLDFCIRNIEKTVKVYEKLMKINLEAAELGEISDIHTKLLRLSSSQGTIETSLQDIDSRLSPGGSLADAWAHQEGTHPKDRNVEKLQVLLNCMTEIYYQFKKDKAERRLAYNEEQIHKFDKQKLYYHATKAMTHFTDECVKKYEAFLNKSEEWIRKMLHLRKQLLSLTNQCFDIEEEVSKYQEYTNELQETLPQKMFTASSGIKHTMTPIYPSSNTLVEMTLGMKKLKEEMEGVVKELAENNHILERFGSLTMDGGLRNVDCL
# Kidney = test: Ex vivo inhibition of renal cystogenesis in wild type C57BL/6 mouse kidney assessed as suppression of 8-Br-cAMP-induced cyst development at 100 nM treated for 6 days by imaging analysis; type: functional, tissue-based; conditions: time 6.0 day
# Mus musculus [17] = test: Inhibition of renal cystogenesis in PKD1 knockout ADPKD (Pkd1 flox/flox; Ksp-Cre) C57BL/6 mouse model assessed as reduction in relative kidney size at 5 mg/kg, SC administered from postnatal day 6 and measured on postnatal day 12; type: functional, organism-based; conditions: time 7.0 day
# Mus musculus [18] = test: Inhibition of renal cystogenesis in PKD1 knockout ADPKD (Pkd1 flox/flox; Ksp-Cre) C57BL/6 mouse model assessed as reduction in renal cystic index at 5 mg/kg, SC administered from postnatal day 6 and measured on postnatal day 12 (reference value: 20.0 +/- 1.3 %); type: functional; design: scale not given: the % may be the effect or the level left; conditions: time 7 day
# Mus musculus [19] = test: In vivo molecular glue activity at RNF126/TBK1 in PKD1 knockout ADPKD (Pkd1 flox/flox; Ksp-Cre) C57BL/6 mouse model assessed as decrease in TBK1 level in kidney at 5 mg/kg, SC administered from postnatal day 6 and measured on postnatal day 12 by Western blot analysis; type: functional, organism-based; conditions: time 7.0 day
# Mus musculus [20] = test: In vivo molecular glue activity at RNF126/TBK1 in PKD1 knockout ADPKD (Pkd1 flox/flox; Ksp-Cre) C57BL/6 mouse model assessed as decrease in phosphorylated STING level in kidney at 5 mg/kg, SC administered from postnatal day 6 and measured on postnatal day 12 by Western blot analysis; type: functional, organism-based; conditions: time 7.0 day
# Mus musculus [21] = test: Anti-inflammatory activity in PKD1 knockout ADPKD (Pkd1 flox/flox; Ksp-Cre) C57BL/6 mouse model assessed as decrease in Ccl2 level in kidney at 5 mg/kg, SC administered from postnatal day 6 and measured on postnatal day 12 by RT-qPCR analysis; type: functional, organism-based; conditions: time 7.0 day
# Mus musculus [22] = test: Anti-inflammatory activity in PKD1 knockout ADPKD (Pkd1 flox/flox; Ksp-Cre) C57BL/6 mouse model assessed as decrease in TNF-alpha level in kidney at 5 mg/kg, SC administered from postnatal day 6 and measured on postnatal day 12 by RT-qPCR analysis; type: functional, organism-based; conditions: time 7.0 day
smiles,measurement,setting,value
COc1ccc(C(=O)/C=C/C(=O)N2CCN(CC3CCN(Cc4cccc(Nc5ncc6ccn(CCCNC(=O)C7CCC7)c6n5)c4)CC3)CC2)cc1,half-life,[1],4.47 h
same,clearance,[2],44.9 mL/min/kg
same,Vd,[3],17.3 L/kg
same,AUC(0-inf),[4],0.14 µM·h
same,Activity,[5],Active
same,Activity,[6],Active
same,Activity,[7],Dose-dependent-effect
same,DC50,[7],360 nM
same,Activity,[8],Dose-dependent-effect
same,DC50,[8],351 nM
same,Emax,[9],71.9%
same,Emax,[10],91.9%
same,Activity,[11],Active; Significant Reduction In Tbk1 Level Observed
same,Activity,[12],Active; Maximal Tbk1 Degradation Observed
same,Activity,[13],Active; Maximal Tbk1 Degradation Observed
same,Activity,[14],inactive
same,Activity,[15],Active; Degradation In Independent Of Crl-Related Pathway
same,IC50,[16],77.4 nM
same,inhibition,Kidney,Active
same,inhibition,Mus musculus [17],Active
same,Activity,Mus musculus [18],14%
same,Activity,Mus musculus [19],Active
same,Activity,Mus musculus [20],Active
same,Activity,Mus musculus [21],Active
same,Activity,Mus musculus [22],Active
